Tests used:
DGKz = DGKz (Homo sapiens (Human), UniProt Q13574); assay: DGK ADP-Glo Kinase Assay (DGKz); assay type: biochemical; conditions: 5 nM DGKz, 15 uM ATP
Protocol: (§1) Luminescence was recorded using an Tecan SPARK microplate reader.

DGKa = DGKa (Homo sapiens (Human), UniProt P23743); assay: DGK ADP-Glo Kinase Assay (DGKa); assay type: biochemical; conditions: 10 nM DGKa, 15 uM ATP
Protocol: as §1

Sequence of DGKa (P23743 whole entry): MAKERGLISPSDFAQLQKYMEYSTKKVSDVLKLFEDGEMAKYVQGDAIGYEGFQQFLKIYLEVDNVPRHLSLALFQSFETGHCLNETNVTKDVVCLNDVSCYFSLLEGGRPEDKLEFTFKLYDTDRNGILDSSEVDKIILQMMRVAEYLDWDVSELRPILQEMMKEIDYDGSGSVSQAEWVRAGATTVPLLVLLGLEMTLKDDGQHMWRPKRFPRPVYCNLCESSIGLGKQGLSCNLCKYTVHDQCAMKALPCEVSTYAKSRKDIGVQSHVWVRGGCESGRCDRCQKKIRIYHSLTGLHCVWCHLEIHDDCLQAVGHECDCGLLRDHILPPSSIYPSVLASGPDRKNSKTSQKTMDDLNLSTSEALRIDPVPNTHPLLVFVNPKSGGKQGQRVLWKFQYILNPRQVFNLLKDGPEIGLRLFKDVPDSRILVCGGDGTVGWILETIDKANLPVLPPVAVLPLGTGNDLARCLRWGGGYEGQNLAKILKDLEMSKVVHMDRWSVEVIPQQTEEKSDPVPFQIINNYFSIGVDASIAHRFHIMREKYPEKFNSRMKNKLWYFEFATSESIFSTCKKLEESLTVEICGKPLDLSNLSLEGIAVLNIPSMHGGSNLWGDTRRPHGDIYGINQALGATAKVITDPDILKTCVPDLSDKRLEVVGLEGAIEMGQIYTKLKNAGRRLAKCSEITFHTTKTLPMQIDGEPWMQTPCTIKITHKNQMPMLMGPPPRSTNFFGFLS
Sequence of DGKz (Q13574 whole entry): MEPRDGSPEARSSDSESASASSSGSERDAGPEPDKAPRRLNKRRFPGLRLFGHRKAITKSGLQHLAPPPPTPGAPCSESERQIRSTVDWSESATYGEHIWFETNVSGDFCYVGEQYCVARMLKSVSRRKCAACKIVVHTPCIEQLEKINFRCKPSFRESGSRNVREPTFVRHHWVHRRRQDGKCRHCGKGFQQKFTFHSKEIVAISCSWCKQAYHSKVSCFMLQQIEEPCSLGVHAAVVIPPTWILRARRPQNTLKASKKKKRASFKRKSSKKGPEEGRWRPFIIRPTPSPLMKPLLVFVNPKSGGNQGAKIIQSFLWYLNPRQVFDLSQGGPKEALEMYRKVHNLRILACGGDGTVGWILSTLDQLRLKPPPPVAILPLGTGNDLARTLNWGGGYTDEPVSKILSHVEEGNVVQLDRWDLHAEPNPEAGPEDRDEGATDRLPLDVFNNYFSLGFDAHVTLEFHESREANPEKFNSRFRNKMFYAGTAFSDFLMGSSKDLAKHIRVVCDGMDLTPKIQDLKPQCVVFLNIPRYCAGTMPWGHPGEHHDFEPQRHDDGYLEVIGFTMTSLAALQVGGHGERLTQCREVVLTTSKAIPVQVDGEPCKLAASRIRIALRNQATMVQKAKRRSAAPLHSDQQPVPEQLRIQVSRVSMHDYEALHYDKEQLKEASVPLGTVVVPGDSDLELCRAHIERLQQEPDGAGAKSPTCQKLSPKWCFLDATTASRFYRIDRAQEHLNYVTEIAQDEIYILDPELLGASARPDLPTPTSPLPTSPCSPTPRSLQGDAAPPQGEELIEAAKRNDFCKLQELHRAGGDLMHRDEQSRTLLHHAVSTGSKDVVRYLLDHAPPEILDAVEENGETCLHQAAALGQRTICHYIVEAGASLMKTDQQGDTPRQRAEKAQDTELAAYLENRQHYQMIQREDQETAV

Structure (SMILES)	IC50 (DGKz)	IC50 (DGKa)
Cn1c(=O)nc(N2CCC3(CC2)COC(c2ccc(OC(F)(F)F)cc2)=N3)c2nc(Cl)ccc21 [Compound 37]	100 to 1000 nM	< 100 nM
Cn1c(=O)nc(N2CCCc3c(C#CC4CC4)cccc32)c2nc(C#N)ccc21 [Compound 39]	> 1000 nM	< 100 nM
Cn1c(=O)nc(N2CCCc3c(C#CC4CC4)cccc32)c2nc(C#N)ccc21 [Compound 42]	100 to 1000 nM	< 100 nM
CC[C@H]1CN([C@H]2CCCCc3cc(C(F)(F)F)ccc32)[C@H](CC)CN1c1nc(=O)n(C)c2ccc(C#N)nc12 [Compound 44]	100 to 1000 nM	< 100 nM
CN(c1cccc(C#CC2CC2)c1)c1nc(=O)n(C)c2ccc(C#N)nc12 [Compound 46]	100 to 1000 nM	< 100 nM
N#Cc1ccc2c(n1)c(N1CCC3(CC1)CC(c1ccc(C(F)(F)F)cc1)=NO3)nc1nncn12 [Compound 53]	100 to 1000 nM	< 100 nM
N#Cc1ccc2c(n1)c(N1CCC3(CC1)CC(c1ccc(SC(F)(F)F)cc1)=NO3)nc1nncn12 [Compound 54]	100 to 1000 nM	< 100 nM
CC[C@H]1CN([C@H](c2ccc(SC(F)(F)F)cc2)c2nc(C3CC3)cs2)[C@H](CC)CN1c1nc(=O)n(C)c2ccc(C#N)nc12 [Compound 57]	100 to 1000 nM	< 100 nM
CC[C@H]1CN([C@@H](c2ccc(SC(F)(F)F)cc2)c2nc(C3CC3)cs2)[C@H](CC)CN1c1nc(=O)n(C)c2ccc(C#N)nc12 [Compound 58]	100 to 1000 nM	< 100 nM
N#Cc1cc2c3c(n1)c(N1CCC4(CC1)CC(c1ccc(OC(F)(F)F)cc1)=NO4)nc(=O)n3CCO2 [Compound 59]	100 to 1000 nM	< 100 nM
CC[C@H]1CN(C(CO)c2ccc(S(F)(F)(F)(F)F)cc2)[C@H](CC)CN1c1nc(=O)n(C)c2ccc(C#N)nc12 (some centres unmarked) [Compound 77]	< 100 nM	< 100 nM
CC[C@H]1CN(C(COC)c2ccc(S(F)(F)(F)(F)F)cc2)[C@H](CC)CN1c1nc(=O)n(C)c2ccc(C#N)nc12 (some centres unmarked) [Compound 78]	< 100 nM	< 100 nM
CC[C@@H]1CN(c2nc3nncn3c3ccc(C#N)nc23)[C@@H](CC)CN1C(=O)c1ccc(C(F)(F)F)cc1 [Compound 84]	> 1000 nM	< 100 nM
CC[C@@H]1CN(c2nc3nncn3c3ccc(C#N)nc23)[C@@H](CC)CN1C(=O)Cc1ccc(C(F)(F)F)cc1 [Compound 85]	100 to 1000 nM	< 100 nM
CC[C@@H]1C[C@H](c2nc3cc(C)ccc3o2)CCN1c1nc(=O)n(C)c2cc(O[C@H]3CCOC3)c(Cl)cc12 [Compound 91]	> 1000 nM	< 100 nM

Second part, the compound after the results:

IC50 (DGKz)	IC50 (DGKa)	Structure (SMILES)
< 100 nM	< 100 nM	Cc1ccc2oc(C3CCN(c4nc(=O)n(C)c5cc(O[C@H]6CCOC6)c(Cl)cc45)CC3)nc2c1 [Compound 33]
< 100 nM	< 100 nM	Cn1c(=O)nc(N2CCC3(CC2)CC(c2cccc(C(F)(F)F)c2)=NO3)c2nc(C#N)ccc21 [Compound 47]
< 100 nM	< 100 nM	CC[C@H]1CN(C(C)c2ccc(SC(F)(F)F)cc2)[C@H](CC)CN1c1nc2nncn2c2ccc(C#N)nc12 (some centres unmarked) [Compound 51]
< 100 nM	< 100 nM	CC[C@H]1CN(C(c2ccc(S(F)(F)(F)(F)F)cc2)c2nc(C3CC3)no2)[C@H](CC)CN1c1nc(=O)n(C)c2ccc(C#N)nc12 (some centres unmarked) [Compound 64]
< 100 nM	< 100 nM	CC[C@@H]1CN(c2nc(=O)n(C)c3ccc(C#N)nc23)[C@@H](C)CN1C(c1ccc(S(F)(F)(F)(F)F)cc1)c1nc(C2CC2)no1 (some centres unmarked) [Compound 65]
< 100 nM	< 100 nM	CC[C@@H]1CN(c2nc(=O)n(C)c3ccc(C#N)nc23)[C@@H](C)CN1[C@@H](c1ccc(F)cc1)c1ccc(SC(F)(F)F)cn1 [Compound 72]
< 100 nM	< 100 nM	CC[C@@H]1CN(c2nc(=O)n(C)c3ccc(C#N)nc23)[C@@H](C)CN1[C@H](c1ccc(F)cc1)c1ccc(SC(F)(F)F)cn1 [Compound 73]

Reference: patent publication US20250215014A1, “KINASE INHIBITORS, PREPARATION METHODS AND USES THEREOF” (InventisBio Co., Ltd., priority 2022, published 2025)
